Results as given in the NIST ThermoML archive (doi:10.1021/je800012v).
Numbers after ± are expanded uncertainties.

Assay: xn = mol fraction of the nth substance listed
Settings: Liquid

CCCCCl [1-chlorobutane] + CCCCCC
mass density [kg/m3]
Settings | x1 = 0.1099 | x1 = 0.212 | x1 = 0.2925 | x1 = 0.316 | x1 = 0.405 | x1 = 0.4978 | x1 = 0.5975 | x1 = 0.6869 | x1 = 0.8294 | x1 = 0.9025
293.15 K, 25000 kPa | – | – | – | – | – | – | – | 825.76 ± 0.54 | 861.98 ± 0.44 | 881.68 ± 0.4
293.15 K, 30000 kPa | 705.17 ± 0.98 | 724.84 ± 0.92 | 741.13 ± 0.87 | 745.88 ± 0.85 | 764.76 ± 0.79 | 785.2 ± 0.73 | 808.12 ± 0.66 | 829.7 ± 0.6 | 865.95 ± 0.49 | 885.66 ± 0.43
293.15 K, 35000 kPa | 708.81 ± 1.1 | 728.53 ± 1 | 744.84 ± 0.95 | 749.61 ± 0.94 | 768.53 ± 0.87 | 788.98 ± 0.8 | 811.92 ± 0.72 | 833.53 ± 0.65 | 869.81 ± 0.52 | 889.53 ± 0.46
298.15 K, 100 kPa | 674.32 ± 0.32 | 693.72 ± 0.31 | 709.76 ± 0.29 | 714.52 ± 0.29 | 733.09 ± 0.28 | 753.4 ± 0.26 | 776.16 ± 0.25 | 797.59 ± 0.23 | 833.73 ± 0.21 | 853.37 ± 0.2
298.15 K, 2500 kPa | 676.93 ± 0.38 | 696.34 ± 0.36 | 712.38 ± 0.35 | 717.11 ± 0.34 | 735.72 ± 0.32 | 756.03 ± 0.31 | 778.78 ± 0.28 | 800.23 ± 0.27 | 836.3 ± 0.24 | 855.94 ± 0.23
298.15 K, 5000 kPa | 679.56 ± 0.44 | 698.96 ± 0.42 | 715.02 ± 0.4 | 719.75 ± 0.39 | 738.37 ± 0.37 | 758.67 ± 0.35 | 781.41 ± 0.32 | 802.86 ± 0.3 | 838.91 ± 0.26 | 858.53 ± 0.25
298.15 K, 10000 kPa | 684.48 ± 0.55 | 703.92 ± 0.52 | 719.98 ± 0.5 | 724.72 ± 0.49 | 743.38 ± 0.46 | 763.66 ± 0.43 | 786.38 ± 0.4 | 807.84 ± 0.37 | 843.87 ± 0.32 | 863.49 ± 0.29
298.15 K, 15000 kPa | 689.11 ± 0.67 | 708.6 ± 0.63 | 724.66 ± 0.6 | 729.39 ± 0.59 | 748.1 ± 0.55 | 768.37 ± 0.52 | 791.12 ± 0.47 | 812.57 ± 0.43 | 848.59 ± 0.36 | 868.18 ± 0.33
298.15 K, 20000 kPa | 693.45 ± 0.78 | 712.95 ± 0.73 | 729.06 ± 0.69 | 733.8 ± 0.68 | 752.52 ± 0.64 | 772.82 ± 0.59 | 795.57 ± 0.54 | 817.04 ± 0.49 | 853.07 ± 0.41 | 872.66 ± 0.37
298.15 K, 25000 kPa | 697.55 ± 0.88 | 717.1 ± 0.83 | 733.24 ± 0.79 | 737.94 ± 0.78 | 756.74 ± 0.73 | 777.05 ± 0.67 | 799.82 ± 0.61 | 821.3 ± 0.55 | 857.35 ± 0.46 | 876.94 ± 0.41
298.15 K, 30000 kPa | 701.45 ± 0.99 | 721.06 ± 0.93 | 737.22 ± 0.88 | 741.91 ± 0.86 | 760.75 ± 0.81 | 781.09 ± 0.74 | 803.9 ± 0.67 | 825.39 ± 0.61 | 861.46 ± 0.5 | 881.06 ± 0.44
298.15 K, 35000 kPa | 705.16 ± 1.1 | 724.8 ± 1 | 741 ± 0.97 | 745.72 ± 0.95 | 764.57 ± 0.89 | 784.94 ± 0.82 | 807.76 ± 0.74 | 829.27 ± 0.66 | 865.37 ± 0.54 | 884.99 ± 0.48
303.15 K, 100 kPa | 669.66 ± 0.33 | 689.16 ± 0.31 | 704.96 ± 0.3 | 709.76 ± 0.3 | 728.25 ± 0.28 | 748.32 ± 0.27 | 770.96 ± 0.25 | 792.32 ± 0.24 | 828.52 ± 0.22 | 847.81 ± 0.21
303.15 K, 2500 kPa | 672.37 ± 0.38 | 691.9 ± 0.36 | 707.69 ± 0.35 | 712.51 ± 0.35 | 730.98 ± 0.33 | 751.02 ± 0.31 | 773.66 ± 0.29 | 795.01 ± 0.27 | 831.2 ± 0.24 | 850.48 ± 0.23
303.15 K, 5000 kPa | 675.06 ± 0.44 | 694.62 ± 0.42 | 710.41 ± 0.4 | 715.21 ± 0.4 | 733.71 ± 0.38 | 753.76 ± 0.35 | 776.4 ± 0.33 | 797.74 ± 0.31 | 833.88 ± 0.27 | 853.16 ± 0.25
303.15 K, 10000 kPa | 680.26 ± 0.56 | 699.79 ± 0.53 | 715.6 ± 0.51 | 720.44 ± 0.5 | 738.89 ± 0.47 | 759.01 ± 0.44 | 781.67 ± 0.41 | 802.98 ± 0.38 | 839.08 ± 0.32 | 858.38 ± 0.3
303.15 K, 15000 kPa | 685.01 ± 0.67 | 704.53 ± 0.64 | 720.39 ± 0.61 | 725.23 ± 0.6 | 743.69 ± 0.56 | – | – | – | – | –
